Measurements from patent US20020055463A1, “Pseudopeptide compounds having an inhibiting activity with respect to paths activated by proteins with active tyrosine kinase activity and pharmaceutical compositions containing same” (priority 1998, published 2002).
One block for each compound: values may come before it. Where a SMILES comes first, the peptide text is derived from it. [ ]: non-standard residue; d: D form. pY = N[C@@H](Cc1ccc(OP(=O)(O)O)cc1)C(=O)O

Key:
Grb2 [1] = molecular target: T1, Grb2 (Homo sapiens, UniProt P62993); assay: ELISA competition test (Grb2/biotin-Aha-PSpYVNVQN displacement); format: binding; conditions: displacement of GST-Grb2 (40 ng/ml) from fixed peptide biotin-Aha-PSpYVNVQN (Shc tyrosine 317)
Procedure: Plates pre-treated with streptavidine (Boehringer) are incubated overnight at 4° C. with 100 μl of a solution of peptide biotin-Aha-PSpYVNVQN (Aha: 6-amino-hexanoic acid) (100 nM solution in TBS buffer Tris 100 mM, NaCl 50 mM, pH 7.5) per well. The non-specific binding is then blocked by incubating for 4 hours with the same buffer containing 3% of skimmed milk ([…]). The products to be tested are distributed among the wells at the desired dilution in the abovementioned buffer containing 3% of skimmed milk and 40 ng/ml of GST-Grb2 (100 μl per well). After one night's incubation, the plates are carefully rinsed 4 times using TBS-milk-0.05% tween 20, then incubated for 2 hours at 37° C., in the presence of 100 μl per well of anti-GST antibody (transduction, dilution 1/500 in TBS-milk-0.05% tween 20). The plates are then carefully rinsed 4 times using TBS-milk-0.05% tween 20, then incubated for 45 minutes at 37° C. in the presence of 100 µl per well of anti-mouse antibody coupled with peroxidase (Amersham, 1/1000 dilution in TBS-milk-0.05% tween 20). The plates are carefully rinsed using TBS-milk-0.05% tween 20, then incubated in the presence of 200 μl per well of TMB developing solution (Interchim), until a sufficient blue coloration has developed. The reaction is then stopped by adding 100 μl of 10% (VN) sulphuric acid per well. The reading is taken at 550 nm. The value read off for each well is then reduced by the control value of an equivalent well with no fixed peptide biotin-Aha-PSpYVNVQN then treated, like its homologue, with fixed peptide. The data is then processed using “Origin 40” software to obtain the 50 inhibitory concentrations.

Grb2 [2] = molecular target: T1, Grb2; assay: Affinity for Grb2 measured by fluorescence; format: binding; conditions: 25° C., 50 mM HEPES, 1 mM DTT, pH 7.5, emission 345 nm, excitation 292 nm, read-out: Diss. const. fluo Kd
Excerpt: They are expressed therein as the dissociation constant Kd.

- IC50 (Grb2 [1]): 71 nM
SMILES: CC(C)[C@H](NC(=O)[C@H](CC(N)=O)NC(=O)[C@@H](NC(=O)[C@H](Cc1ccc(OP(=O)(O)O)cc1)NC(=O)[C@H](CO)NC(=O)[C@@H]1CCCN1)C(C)C)C(=O)N[C@@H](CCC(N)=O)C(=O)N[C@@H](CC(N)=O)C(=O)O [PSpYVNVQN (Shc 317), reference compound] (H-PS[pY]VNVQN-OH)

SMILES: C[C@@](Cc1ccc(OP(=O)(O)O)cc1)(NC(=O)[C@H](Cc1ccc(CP(=O)(O)O)cc1)NC(=O)OCc1cccc(N)c1)C(=O)N[C@@H](CC(N)=O)C(N)=O [mAZ-Pmp-(αMe)pTyr-Asn-NH2, mAZ-Pmp-(α-Me) pTyr-Asn-NH2]
- IC50 (Grb2 [1]): 42 nM

SMILES: CC(Cc1ccc(C(F)(F)P(=O)(O)O)cc1)(NC(=O)[C@H](Cc1ccc(OP(=O)(O)O)cc1)NC(=O)OCc1cccc(N)c1)C(=O)N[C@@H](CC(N)=O)C(N)=O (stereo partly drawn) [mAZ-pTyr-(αMe)F2Pmp-Asn-NH2, mAZ-pTyr-(D,L)(α-Me)F2Pmp-Asn-NH2]
- IC50 (Grb2 [1]): 64 nM

SMILES: C[C@@](Cc1ccc(CC(=O)O)cc1)(NC(=O)[C@H](Cc1ccc(OP(=O)(O)O)cc1)NC(=O)OCc1cccc(N)c1)C(=O)N[C@@H](CC(N)=O)C(N)=O [mAZ-pTyr-(αMe)Phe(CH2—COOH)-Asn-NH2, mAZ-pTyr-(αMe)Phe(4-CH2CO2H)-Asn-NH2]
- Kd (Grb2 [2]): 60 nM
- IC50 (Grb2 [1]): 198 nM

SMILES: C[C@@](Cc1ccc(C(=O)O)cc1)(NC(=O)[C@H](Cc1ccc(OP(=O)(O)O)cc1)NC(=O)OCc1cccc(N)c1)C(=O)N[C@@H](CC(N)=O)C(N)=O [mAZ-pTyr-(αMe)Phe(COOH)-Asn-NH2, mAZ-pTyr-(αMe)Phe(4-CO2H)-Asn-NH2]
- Kd (Grb2 [2]): 45 nM
- IC50 (Grb2 [1]): 153 nM

SMILES: CC(Cc1ccc(CP(=O)(O)O)cc1)(NC(=O)[C@H](Cc1ccc(OP(=O)(O)O)cc1)NC(=O)OCc1cccc(N)c1)C(=O)N[C@@H](CC(N)=O)C(N)=O (stereo partly drawn) [mAZ-pTyr-(αMe)Pmp-Asn-NH2, mAZ-pTyr-(D,L)(αMe)Pmp-Asn-NH2]
- Kd (Grb2 [2]): 70 nM
- IC50 (Grb2 [1]): 266 nM

SMILES: CC(Cc1ccc(P(=O)(O)O)cc1)(NC(=O)[C@H](Cc1ccc(OP(=O)(O)O)cc1)NC(=O)OCc1cccc(N)c1)C(=O)N[C@@H](CC(N)=O)C(N)=O (stereo partly drawn) [mAZ-pTyr-(αMe)Ppp-Asn-NH2 (D or L)]
- Kd (Grb2 [2]): 4.5 nM

SMILES: C[C@@](Cc1ccc(O)cc1)(NC(=O)[C@H](Cc1ccc(OP(=O)(O)O)cc1)NC(=O)OCc1cccc(N)c1)C(=O)N[C@@H](CC(N)=O)C(N)=O [mAZ-pTyr-(αMe)Tyr-Asn-NH2, mAZ-pTyr-(α-Me)Tyr-Asn-NH2, reference compound]
- Kd (Grb2 [2]): 250 nM
- IC50 (Grb2 [1]): 1100 nM

SMILES: C[C@@](Cc1ccc(OP(=O)(O)O)cc1)(NC(=O)[C@H](Cc1ccc(OP(=O)(O)O)cc1)NC(=O)OCc1cccc(N)c1)C(=O)N[C@@H](CC(N)=O)C(N)=O [mAZ-pTyr-(αMe)pTyr-Asn-NH2, mAZ-pTyr-(α-Me)pTyr-Asn-NH2]
- Kd (Grb2 [2]): 3 nM
- IC50 (Grb2 [1]): 11 nM

SMILES: NC(=O)C[C@H](NC(=O)C1(NC(=O)[C@H](Cc2ccc(OP(=O)(O)O)cc2)NC(=O)OCc2cccc(N)c2)CCCCC1)C(N)=O [mAZ-pTyr-Acac-Asn-NH2, reference compound]
- Kd (Grb2 [2]): 30 nM
- IC50 (Grb2 [1]): 120 nM

SMILES: NC(=O)C[C@H](NC(=O)[C@H](Cc1ccc(O)cc1)NC(=O)[C@H](Cc1ccc(OP(=O)(O)O)cc1)NC(=O)OCc1cccc(N)c1)C(N)=O [mAZ-pTyr-Tyr-Asn-NH2, reference compound]
- Kd (Grb2 [2]): 155 nM
- IC50 (Grb2 [1]): 497 nM

SMILES: NC(=O)C[C@H](NC(=O)[C@H](Cc1ccc(OP(=O)(O)O)cc1)NC(=O)[C@H](Cc1ccc(OP(=O)(O)O)cc1)NC(=O)OCc1cccc(N)c1)C(N)=O [mAZ-pTyr-pTyr-Asn-NH2, reference compound]
- Kd (Grb2 [2]): 60 nM
- IC50 (Grb2 [1]): 235 nM
